Measurements reported in US20240268388A1, “AGRICULTURAL AND HORTICULTURAL FUNGICIDAL COMPOSITION” (NIPPON SODA CO., LTD., priority 2021, published 2024).
Where two headings read alike, the source gives them in different places.

Experiments:
[1] = system: soybean rust pathogen (Phakopsora pachyrhizi); experiment: Soybean rust control test (leaf discs); type: in vivo
Description: Compounds of component (I) and component (II) were dissolved in dimethyl sulfoxide and diluted with water to the prescribed concentration to prepare a chemical agent solution. A mixture of the prescribed concentration of the chemical agent solution and sterile water was prepared on a microplate, and leaf discs cut from soybean leaves were floated on the microplate. Uredospores of soybean rust pathogen (Phakopsora pachyrhizi) were inoculated and incubated at 25° C. for 9 days. The area percentage of lesions was determined by observing uredospore-forming lesions on the leaf discs, and the control value was calculated. The control value was calculated by the following formula:
Control value (%)=100−{Area percentage of lesions in treatment plot/Area percentage of lesions in untreatment plot}×100.
The results are shown in Tables 8 to 18, along with the expected values calculated as below. Each expected values was calculated from the fungicidal efficacy of a single application of compound of component (I) and the fungicidal efficacy of a single application of compound of component (II) by using Colby's equation:
[formula] • where E represents the expected value of the control value for the composition containing component (I) and component (II), M represents the control value (%) when the component (I) is used alone, and N represents the control value (%) when the component (II) is used alone. When the measured control value for the composition containing component (I) and component (II) is greater than the expected value E, the composition containing component (I) and composition (II) should exert a synergistic effect.

[2] = system: cucumber anthracnose pathogen (Colletotrichum lagenarium); experiment: Fungicidal test for cucumber anthracnose (microplate, turbidity at 405 nm); type: cell-based; details: for inhibition at 0.025 ppm / inhibition at 0.1 ppm / inhibition at 0.4 ppm: Colletotrichum orbiculare, read-out: growth inhibition rate
Description: The compounds were dissolved in dimethyl sulfoxide to prepare a chemical agent solution.
A mixture of the prescribed concentration of the chemical agent solution, cucumber anthracnose pathogen (Colletotrichum lagenarium) conidia, and Vogel medium was prepared on a microplate and incubated at 20° C. in the dark for 7 days.
Each expected value was calculated using Colby's equation:
[formula] • where E represents the expected value of the growth inhibition rate (%), M represents the growth inhibition rate (%) when the component (I) is used alone, and N represents the growth inhibition rate (%) when the component (II) is used alone.

[3] = Table 19, component (II) alone (component (I): None): Ipflufenoquin 0.000026, Iminoctadine trialbesilate 0.0032, Cyflufenamid 10, Cyprodinil 0.00013, Potassium bicarbonate 0.08, Thiophanate-methyl 0.08, Picarbutrazox 0.016, Fludioxonil 0.0032, Florylpicoxamid 0.0032, Metyltetraprole 0.08, Mefentrifluconazole 0.4 ppm
[4] = Table 20, component (II) alone (component (I): None): Ipflufenoquin 0.00064, Iminoctadine trialbesilate 0.0032, Cyflufenamid 10, Cyprodinil 0.00013, Potassium bicarbonate 0.08, Thiophanate-methyl 0.4, Picarbutrazox 0.016, Fludioxonil 0.0032, Florylpicoxamid 0.0032, Metyltetraprole 0.08, Mefentrifluconazole 0.4 ppm
[5] = Table 21, component (II) alone (component (I): None): Ipflufenoquin 0.00064, Iminoctadine trialbesilate 0.0032, Cyflufenamid 10, Cyprodinil 0.00013, Potassium bicarbonate 0.08, Thiophanate-methyl 0.4, Picarbutrazox 0.00064, Fludioxonil 0.0032, Florylpicoxamid 0.0032, Metyltetraprole 0.08, Mefentrifluconazole 0.4 ppm
[6] = Table 22, component (II) alone (component (I): None): Ipflufenoquin 0.00064, Iminoctadine trialbesilate 0.0032, Cyflufenamid 10, Cyprodinil 0.00013, Potassium bicarbonate 0.08, Thiophanate-methyl 0.4, Picarbutrazox 0.00064, Fludioxonil 0.0032, Florylpicoxamid 0.0032, Metyltetraprole 0.08, Mefentrifluconazole 0.4 ppm
[7] = Table 23, component (II) alone (component (I): None): Ipflufenoquin 0.00064, Iminoctadine trialbesilate 0.0032, Cyflufenamid 10, Cyprodinil 0.000026, Potassium bicarbonate 0.08, Thiophanate-methyl 0.4, Picarbutrazox 0.00064, Fludioxonil 0.00064, Florylpicoxamid 0.0032, Metyltetraprole 0.08, Mefentrifluconazole 0.4 ppm
[8] = Table 24, component (II) alone (component (I): None): Ipflufenoquin 0.00064, Iminoctadine trialbesilate 0.0032, Cyflufenamid 10, Cyprodinil 0.00013, Potassium bicarbonate 0.08, Thiophanate-methyl 0.4, Picarbutrazox 0.00064, Fludioxonil 0.00013, Florylpicoxamid 0.0032, Metyltetraprole 0.08, Mefentrifluconazole 0.4 ppm
[9] = Table 14, component (II) alone (component (I): None): Inpyrfluxam 0.00025, Chlorothalonil 0.006, Thiophanate-methyl 0.0001, Tebuconazole 0.000025, Trifloxystrobin 0.0001, Fluazinam 0.006, Prothioconazole 0.000025, Florylpicoxamid 0.0001, Metominostrobin 0.0004 ppm
[10] = Table 16, component (II) alone (component (I): None): Inpyrfluxam 0.000025, Chlorothalonil 0.006, Thiophanate-methyl 0.0001, Tebuconazole 0.000025, Trifloxystrobin 0.0001, Fluazinam 0.006, Prothioconazole 0.000025, Florylpicoxamid 0.0001, Metominostrobin 0.0004 ppm
[11] = Table 17, component (II) alone (component (I): None): Inpyrfluxam 0.000026, Chlorothalonil 0.02, Thiophanate-methyl 0.0004, Tebuconazole 0.0001, Trifloxystrobin 0.0001, Fluazinam 0.006, Prothioconazole 0.000025, Florylpicoxamid 0.0001, Metominostrobin 0.0004 ppm

Row | SMILES | growth inhibition rate [2, 3] [%] | growth inhibition rate [2, 4] [%] | growth inhibition rate [2, 5] [%] | growth inhibition rate [2, 6] [%] | growth inhibition rate [2, 7] [%] | growth inhibition rate [2, 8] [%] | other results
1 | CC(C)ON=C1CN(C(=O)Cc2ccc(-c3noc(C(F)(F)F)n3)cc2)C1 [Compound 7] | – | – | – | – | – | – | control value ([1]; component (I) alone, 0.0063 ppm): 16%; control value ([1]; component (I) alone, 0.025 ppm): 32%; control value ([1]; component (I) alone, 0.1 ppm): 64%; control value ([1]; component (I) alone, 0.4 ppm): 94%
2 | CCON=C1CCN(C(=O)Cc2ccc(-c3noc(C(F)(F)F)n3)cc2)CC1 [Compound 8] | – | – | – | – | – | – | control value ([1]; Compound 8 alone, 0.0063 ppm): 10%; control value ([1]; Compound 8 alone, 0.025 ppm): 16%; control value ([1]; Compound 8 alone, 0.1 ppm): 32%; control value ([1]; Compound 8 alone, 0.4 ppm): 75%; control value ([1]; Compound 8 alone, 1.6 ppm): 93%; inhibition at 0.025 ppm ([2]; Compound 8 alone): 58%; inhibition at 0.1 ppm ([2]; Compound 8 alone): 55%; inhibition at 0.4 ppm ([2]; Compound 8 alone): 85%
3 | CON=C1CCN(C(=O)Cc2ccc(-c3noc(C(F)(F)F)n3)cc2)CC1 [Compound 9] | – | – | – | – | – | – | control value ([1]; Compound 9 alone, 0.0063 ppm): 13%; control value ([1]; Compound 9 alone, 0.025 ppm): 34%; control value ([1]; Compound 9 alone, 0.1 ppm): 49%; control value ([1]; Compound 9 alone, 0.4 ppm): 96%; inhibition at 0.025 ppm ([2]; Compound 9 alone): 42%; inhibition at 0.1 ppm ([2]; Compound 9 alone): 49%; inhibition at 0.4 ppm ([2]; Compound 9 alone): 83%
4 | O=C(Cc1ccc(-c2noc(C(F)(F)F)n2)cc1)N1CCC(=NOCC(F)(F)F)CC1 [Compound 10] | – | – | – | – | – | – | control value ([1]; Compound 10 alone, 0.0063 ppm): 0%; control value ([1]; Compound 10 alone, 0.025 ppm): 27%; control value ([1]; Compound 10 alone, 0.1 ppm): 42%; control value ([1]; Compound 10 alone, 0.4 ppm): 66%; control value ([1]; Compound 10 alone, 1.6 ppm): 94%; inhibition at 0.025 ppm ([2]; Compound 10 alone): 63%; inhibition at 0.1 ppm ([2]; Compound 10 alone): 52%; inhibition at 0.4 ppm ([2]; Compound 10 alone): 96%
5 | CC(C)ON=C1CCN(C(=O)Cc2ccc(-c3noc(C(F)(F)F)n3)cc2)CC1 [Compound 11] | – | – | – | – | – | – | control value ([1]; Compound 11 alone, 0.0063 ppm): 6%; control value ([1]; Compound 11 alone, 0.025 ppm): 15%; control value ([1]; Compound 11 alone, 0.1 ppm): 52%; control value ([1]; Compound 11 alone, 0.4 ppm): 70%; control value ([1]; Compound 11 alone, 1.6 ppm): 84%
6 | O=C(Cc1ccc(-c2noc(C(F)(F)F)n2)cc1)N1CCC(=NO)CC1 [Compound 12] | – | – | – | – | – | – | control value ([1]; Compound 12 alone, 0.0063 ppm): 21%; control value ([1]; Compound 12 alone, 0.025 ppm): 33%; control value ([1]; Compound 12 alone, 0.1 ppm): 64%; control value ([1]; Compound 12 alone, 0.4 ppm): 92%
7 | O=C(Cc1ccccc1)N/C(=N\OCC1CC1)c1c(C(F)(F)F)ccc(F)c1F [Cyflufenamid] | 64 | 64 | 64 | 64 | 64 | 64 | –
8 | Cc1cc(C2CC2)nc(Nc2ccccc2)n1 [Cyprodinil] | 12 | 12 | 12 | 12 | 0 | 12 | –
9 | N#Cc1c[nH]cc1-c1cccc2c1OC(F)(F)O2 [Fludioxonil] | 64 | 64 | 64 | 64 | 0 | 0 | –
10 | CCCCCCCCCCCCc1ccc(S(=O)(=O)O)cc1.CCCCCCCCCCCCc1ccc(S(=O)(=O)O)cc1.CCCCCCCCCCCCc1ccc(S(=O)(=O)O)cc1.NC(N)=NCCCCCCCCNCCCCCCCCN=C(N)N [Iminoctadine trialbesilate] | 22 | 22 | 22 | 22 | 22 | 22 | –
11 | CC(O)(Cn1cncn1)c1ccc(Oc2ccc(Cl)cc2)cc1C(F)(F)F (stereo not drawn) [Mefentrifluconazole] | 64 | 64 | 64 | 64 | 64 | 64 | –
12 | CNC(=O)/C(=N/OC)c1ccccc1Oc1ccccc1 [Metominostrobin] | – | – | – | – | – | – | control value [1, 9]: 27%; control value [1, 10]: 27%; control value [1, 11]: 27%
13 | Cc1cccc(-n2nnn(C)c2=O)c1COc1ccn(-c2ccc(Cl)cc2)n1 [Metyltetraprole] | 77 | 77 | 77 | 77 | 77 | 77 | –
14 | Cn1nnnc1/C(=N\OCc1cccc(NC(=O)OC(C)(C)C)n1)c1ccccc1 [Picarbutrazox] | 87 | 87 | 0 | 0 | 0 | 0 | –
15 | O=C([O-])O.[K+] [Potassium bicarbonate] | 53 | 53 | 53 | 53 | 53 | 53 | –
16 | COC(=O)NC(=S)Nc1ccccc1NC(=S)NC(=O)OC [Thiophanate-methyl] | 0 | 0 | 0 | 0 | 0 | 0 | control value [1, 9]: 27%; control value [1, 10]: 27%; control value [1, 11]: 66%
